Assay results published in patent publication US5541163A, “Renin inhibiting N-(2-amino-2-oxoethyl)butanediamide derivatives” (Bio-Mega/Boehringer Ingelheim Research Inc., priority 1993, dated 1996).

What follows are compounds tested against T1, human renin (Homo sapiens, UniProt P00797) (assay: Plasma renin assay (inhibition of human renin, angiotensin I by RIA)). Conditions: human plasma pool, pH 6.0, 2 h incubation at 37°.
T1 construct: A human plasma pool is used as the source of both the substrate (angiotensinogen) and the enzyme (renin); from tissue; host or cells: human plasma pool
T1 sequence (P00797 67-406): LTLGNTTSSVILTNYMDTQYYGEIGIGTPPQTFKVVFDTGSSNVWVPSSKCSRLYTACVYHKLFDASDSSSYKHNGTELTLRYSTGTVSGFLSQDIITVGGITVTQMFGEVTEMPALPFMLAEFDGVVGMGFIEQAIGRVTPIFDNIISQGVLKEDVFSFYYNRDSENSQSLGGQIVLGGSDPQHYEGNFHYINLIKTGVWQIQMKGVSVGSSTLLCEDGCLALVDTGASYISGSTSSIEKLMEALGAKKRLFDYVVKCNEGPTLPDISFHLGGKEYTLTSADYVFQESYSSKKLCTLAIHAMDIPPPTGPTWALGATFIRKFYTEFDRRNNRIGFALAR
Format: biochemical
Outline: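 Pooled human plasma supplies both renin and angiotensinogen; inhibitor in MES/1% HSA buffer (1% DMSO final) incubated 2 h at 37° at pH 6.0. Angiotensin I generated quantified by radioimmunoassay, inhibition relative to no-inhibitor control, IC50 by nonlinear regression.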

IC50 [nM] | Compound
1 | CC(C)C[C@H](O)[C@H](O)[C@H](CC1CCCCC1)NC(=O)[C@@H](CC(=O)N(CC(=O)N(C)CCc1ccccn1)Cc1ccco1)Cc1csc(N)n1 [Compound 79, N^4-(2-furanylmethyl)-N^4 -{2-{methyl-[2-(2-pyridinyl)ethyl)amino}-2-oxoethyl}-N^1-[1(S)-(cyclohexylmethyl)-2(R),3(S)-dihydroxy-5-methylhexyl]-2(R)-[(2-amino-4-thiazolyl)-methyl]butanediamide]
12 | CC(C)C[C@H](O)[C@H](O)[C@H](CC1CCCCC1)NC(=O)[C@@H](CC(=O)N(CC(=O)N(C)CCc1ccccn1)CC1CCCCC1)CC1CC1 [Compound 46, N^4-(cyclohexylmethyl)-N^4 -{2-{methyl-[2-(2-pyridinyl)-ethyl]amino}-2-oxoethyl}-N^1-[1(S)-(cyclohexylmethyl)-2(R),3(S)-dihydroxy-5-methylhexyl]-2(R)-(cyclopropylmethyl)butanediamide]
440 | COc1ccc(CN(CC(=O)N(C)C)C(=O)C[C@@H](CC2CC2)C(=O)N[C@@H](CC2CCCCC2)[C@@H](O)[C@@H](O)CC(C)C)cc1 [Compound 10, N^4-[2-(dimethylamino)-2-oxoethyl]-N^4-[(4-methoxyphenyl)methyl]-N^1-[1(S)-(cyclohexylmethyl)-2(R),3(S)-dihydroxy-5-methylhexyl]-2(R)-(cyclopropylmethyl)butanediamide]
2 | CC(C)C[C@H](O)[C@H](O)[C@H](CC1CCCCC1)NC(=O)[C@@H](CC(=O)N(CC(=O)N1CCOCC1)CC1CCCC1)Cc1csc(N)n1 [Compound 80, N^4-(cyclopentylmethyl)-N^4-(2-morpholino-2-oxoethyl)-N^1-[1(S)-(cyclohexylmethyl)-2(R),3(S)-dihydroxy-5-methylhexyl]-2(R)-[(2-amino-4-thiazolyl)methyl]butanediamide]
2.5 | CC(C)C[C@H](O)[C@H](O)[C@H](CC1CCCCC1)NC(=O)[C@@H](CC(=O)N(CC(=O)N(C)C)[C@@H](C)c1ccccc1)Cc1cscn1 [Compound 30, N^4-[2-(dimethylamino)-2-oxoethyl]-N^4-[1(S)-phenylethyl]-N^1-[1(S)-(cyclohexylmethyl)-2(R),3(S)-dihydroxy-5-methylhexyl]-2(R)-(4-thiazolylmethyl)butanediamide]
6 | CC(C)C[C@H](O)[C@H](O)[C@H](CC1CCCCC1)NC(=O)[C@@H](CC(=O)N(CC(=O)N(C)C)[C@@H](C)c1ccccc1)Cc1c[nH]cn1 [Compound 27, N^4-[2-(dimethylamino)-2-oxoethyl]-N^4-(1(S)-phenylethyl]-N^1-[1(S)-(cyclohexylmethyl)-2(R),3(S)-dihydroxy-5-methylhexyl]-2(R)-(1H-imidazol-4-ylmethyl)butanediamide]
2 | CC(C)C[C@H](O)[C@H](O)[C@H](CC1CCCCC1)NC(=O)[C@@H](CC(=O)N(CC(=O)N(C)CCN1CCOCC1)[C@@H](C)c1ccccc1)Cc1csc(N)n1 [Compound 93, N^4 -{2-[methyl(2-morpholinoethyl)-amino]-2-oxoethyl}-N^4-[1(S)-phenylethyl]-N^1-[1(S)-(cyclohexylmethyl)-2(R),3(S)-dihydroxy-5-methylhexyl]-2(R)-[(2-amino-4-thiazolyl)methyl]-butanediamide]
32 | CC(C)C[C@H](O)[C@H](O)[C@H](CC1CCCCC1)NC(=O)[C@@H](CC(=O)N(CC(=O)N(C)C)CC1CCCC1)Cc1cccnc1 [Compound 69, N^4-(cyclopentylmethyl)-N^4-[2-(dimethylamino)-2-oxoethyl]-N^1-[1(S)-(cyclohexylmethyl)-2(R),3(S)-dihydroxy-5-methylhexyl]-2(R)-(3-pyridinylmethyl)butanediamide]
8 | CC(C)C[C@H](O)[C@H](O)[C@H](CC1CCCCC1)NC(=O)[C@@H](CC(=O)N(CC(=O)N1CCOCC1)CC1CCCCC1)CC1CC1 [Compound 35, N^4-(cyclohexylmethyl)-N^4-(2-morpholino-2-oxoethyl)-N^1-[1(S)-(cyclohexylmethyl)-2(R),3(S)-dihydroxy-5-methylhexyl]-2(R)-(cyclopropylmethyl)butanediamide]
3.5 | CC(C)C[C@H](O)[C@H](O)[C@H](CC1CCCCC1)NC(=O)[C@@H](CC(=O)N(CC(=O)N(C)CCc1ccccn1)Cc1ccccc1)Cc1nccs1 [Compound 41, N^4-benzyl-N^4 -{2-{methyl[2-(2-pyridinyl)ethyl]amino}-2-oxoethyl}-N^1-[1(S)-(cyclohexylmethyl)-2(R),3(S)-dihydroxy-5-methylhexyl]-2(S)-(2-thiazolylmethyl)butanediamide]
29 | CCC[C@H](CC(=O)N(CC(=O)N(C)CCc1ccccn1)Cc1ccccc1)C(=O)N[C@@H](CC1CCCCC1)[C@@H](O)[C@@H](O)CC(C)C [Compound 26, N^4-benzyl-N^4 -{2-{methyl[2-(2-pyridinyl)ethyl]amino}-2-oxoethyl}-N^1-[1(S)-(cyclohexylmethyl)-2(R),3(S)-dihydroxy-5-methylhexyl]-2(R)-propylbutanediamide]
10 | CC(C)C[C@H](O)[C@H](O)[C@H](CC1CCCCC1)NC(=O)[C@@H](CC(=O)N(CC(=O)N1CCOCC1)CC1CCCCC1)Cc1cccnc1 [Compound 59, N^4-(cyclohexylmethyl)-N^4-(2-morpholino-2-oxoethyl)-N^1-[1(S)-(cyclohexylmethyl)-2(R),3(S)-dihydroxy-5-methylhexyl]-2(R)-(3-pyridinylmethyl)butanediamide]
2.4 | C[C@@H](c1ccccc1)N(CC(=O)N(C)C)C(=O)C[C@@H](Cc1csc(N)n1)C(=O)N[C@@H](CC1CCCCC1)[C@@H](O)[C@@H]1CC(C)(C)N(C)C1=O [Compound 44, N^4-[2-(dimethylamino)-2-oxoethyl]-N^4-[1(S)-phenylethyl]-N^1-[1(S)-(cyclohexylmethyl)-2(S)-hydroxy-2-(1,5,,5-trimethyl-2-oxopyrrolidin-3(S)-yl)ethyl]-2(R)-[(2-amino-4-thiazolyl)methyl]butanediamide]
3 | CC(C)C[C@H](O)[C@H](O)[C@H](CC1CCCCC1)NC(=O)[C@@H](CC(=O)N(CC(=O)N(C)CCc1ccccn1)Cc1ccccc1F)Cc1csc(N)n1 [Compound 82, N^4-[(2-fluorophenyl)methyl]-N^4 -{2-{methyl[2-(2-pyridinyl)ethyl]-amino}-2-oxoethyl}-N^1-[1(S)-(cyclohexylmethyl)-2(R),3(S)-dihydroxy-5-methylhexyl]-2(R)-[(2-amino-4-thiazolyl)methyl]butanediamide]
5 | CC(C)C[C@H](O)[C@H](O)[C@H](CC1CCCCC1)NC(=O)[C@@H](CC(=O)N(CCc1ccccc1)CC(=O)N(C)C)Cc1csc(N)n1 [Compound 60, N^4-[2-(dimethylamino)-2-oxoethyl]-N^4-(2-phenylethyl)-N^1-[1(S)-(cyclohexylmethyl)-2(R),3(S)-dihydroxy-5-methylhexyl]-2(R)-[(2-amino-4-thiazolyl)methyl]butanediamide]
16 | CC(C)C[C@H](O)[C@H](O)[C@H](CC1CCCCC1)NC(=O)[C@@H](CC(=O)N(CC(=O)N(C)C)CC1CCCCC1)Cc1ccccc1 [Compound 55, N^4-(cyclohexylmethyl)-N^4-[2-(dimethylamino)-2-oxoethyl]-N^1-[1(S)-(cyclohexylmethyl)-2(R),3(S)-dihydroxy-5-methylhexyl]-2(R)-(phenylmethyl)butanediamide]
